Read-outs that look alike come from different tables or passages of the source.
Target: GLP-1 Receptor (Homo sapiens, UniProt P43220)
Test: GLP-1R agonist cAMP stimulation assay (HEK293/GLP1R/CRE-LUC cells, cAMP dynamic 2 kit)
Type: cell-based
Conditions: HEK293/CRE-Luc cell line stably expressing the GLP-1 Receptor, 30 min incubation at 37° C.
Experimental: Activation of GLP-1 receptor is known to stimulate cyclic AMP (cAMP) production in cells which indicates primary coupling to the Gas subunit of the G protein heterotrimeric complex.
To optimize functional activity directed toward Gas coupling, a HEK293/CRE-Luc cell line developed by HDB stably expressing the GLP-1 Receptor was used. […] Seal the plate and incubate at 37° C. with 5% CO2 for 30 min.
After incubation the cAMP assay signal was generated using cAMP dynamic 2 Kit (Cisbio). 5 μL cAMP-d2 working solution was added to each well, followed with 5 μL Anti-cAMP antibody-cryptate working solution added to each well using ThermoFisher Multidrop Combi. Incubate at room temperature for 1 hour protected from light.
% Activity=[…]×(mean RLU of test sample−mean RLU of vehicle control)/(mean RLU of MAX control−mean RLU of vehicle control))

[1] = read-out: GLP1R cAMP Stimulation DR: EC50

GLP-1 Receptor, sequence (P43220 24-463, species assumed): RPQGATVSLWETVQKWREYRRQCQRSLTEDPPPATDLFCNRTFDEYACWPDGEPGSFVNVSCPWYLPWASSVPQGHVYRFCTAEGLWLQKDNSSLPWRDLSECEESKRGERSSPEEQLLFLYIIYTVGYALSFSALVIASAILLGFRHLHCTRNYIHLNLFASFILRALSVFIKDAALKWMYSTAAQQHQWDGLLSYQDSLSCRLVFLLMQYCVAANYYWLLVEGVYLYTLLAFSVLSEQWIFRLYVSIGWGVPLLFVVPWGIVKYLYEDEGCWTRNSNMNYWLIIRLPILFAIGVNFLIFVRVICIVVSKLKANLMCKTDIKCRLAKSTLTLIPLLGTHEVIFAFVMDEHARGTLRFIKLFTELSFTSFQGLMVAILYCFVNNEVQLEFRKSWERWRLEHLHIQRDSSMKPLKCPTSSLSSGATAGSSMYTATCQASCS

| SMILES | EC50 [1] [nM] | EC50 (read-out: GLP1R cAMP Stimulation DR: pEC50 (converted)) [nM] |
| --- | --- | --- |
| O=C(O)c1ccc2nc(C[C@H]3CC[C@H](Oc4ccnc(Cc5ccc(Cl)cc5F)n4)CC3)n(C[C@@H]3CCO3)c2n1 [Compound 175b, 3-{[(2S)-oxetan-2-yl]methyl}-2-{[trans-4-({2-[(4-chloro-2-fluorophenyl)methyl]pyrimidin-4-yl}oxy)cyclohexyl]methyl}-3H-imidazo[4,5-b]pyridine-5-carboxylic acid] | 0.063 |  |
| O=C(O)c1ccc2nc(C[C@H]3CC[C@H](Oc4ccnc(Cc5ccc(Cl)cc5)n4)CC3)n(C[C@@H]3CCO3)c2c1 [Compound 176a, 1-{[(2S)-oxetan-2-yl]methyl)-2-{[trans-4-({2-[(4-chlorophenyl)methyl]pyrimidin-4-yl}oxy)cyclohexyl]methyl}-1H-1,3-benzodiazole-6-carboxylic acid] | 0.37 |  |
| O=C(O)c1ccc2nc(C[C@H]3CC[C@H](Oc4ccnc(Cc5ccc(Cl)cc5)n4)CC3)n(C[C@@H]3CCO3)c2n1 [Compound 177a, 3-{[(2S)-oxetan-2-yl]methyl}-2-{[trans-4-({2-[(4-chlorophenyl)methyl]pyrimidin-4-yl}oxy)cyclohexyl]methyl}-3H-imidazo[4,5-b]pyridine-5-carboxylic acid] | 0.042 |  |
| N#CC1(Cn2c(C[C@H]3CC[C@H](Oc4ccnc(Cc5ccc(Cl)cc5)n4)CC3)nc3ccc(C(=O)O)nc32)CC1 [Compound 178a, 3-[(1-cyanocyclopropyl)methyl]-2-{[trans-4-({2-[(4-chlorophenyl)methyl]pyrimidin-4-yl}oxy)cyclohexyl]methyl}-3H-imidazo[4,5-b]pyridine-5-carboxylic acid] | 0.1 |  |
| COCCn1c(C[C@H]2CC[C@H](Oc3ccnc(Cc4ccc(Cl)cc4)n3)CC2)nc2ccc(C(=O)O)nc21 [Compound 179a, 3-(2-methoxyethyl)-2-{[trans-4-({2-[(4-chlorophenyl)methyl]pyrimidin-4-yl}oxy)cyclohexyl]methyl}-3H-imidazo[4,5-b]pyridine-5-carboxylic acid] | 2.8 |  |
| Cn1c(C[C@H]2CC[C@H](Oc3ccnc(Cc4ccc(Cl)cc4)n3)CC2)nc2ccc(C(=O)O)nc21 [Compound 180a, 3-methyl-2-{[trans-4-({2-[(4-chlorophenyl)methyl]pyrimidin-4-yl}oxy)cyclohexyl]methyl}-3H-imidazo[4,5-b]pyridine-5-carboxylic acid] | 2.3 |  |
| O=C(O)c1ccc2nc(C[C@H]3CC[C@H](Oc4cccc(Cc5ccc(Cl)cc5)n4)CC3)n(C[C@@H]3CCO3)c2n1 [Compound 181a, 3-{[(2S)-oxetan-2-yl]methyl}-2-{[trans-4-({6-[(4-chlorophenyl)methyl]pyridin-2-yl}oxy)cyclohexyl]methyl}-3H-imidazo[4,5-b]pyridine-5-carboxylic acid] | 0.083 |  |
| N#Cc1ccc(Cc2nccc(O[C@H]3CC[C@H](Cc4nc5ccc(C(=O)O)nc5n4C[C@@H]4CCO4)CC3)n2)cc1 [Compound 182a, 3-{[(2S)-oxetan-2-yl]methyl}-2-{[trans-4-({2-[(4-cyanophenyl)methyl]pyrimidin-4-yl}oxy)cyclohexyl]methyl}-3H-imidazo[4,5-b]pyridine-5-carboxylic acid] | 0.07 |  |
| O=C(O)c1ccc2nc(CN3CCC(Oc4nn(Cc5ccc(Cl)cc5F)cc4Cl)CC3)n(C[C@@H]3CCO3)c2n1 [Compound 183a, 2-{[4-({4-chloro-1-[(4-chloro-2-fluorophenyl)methyl]-1H-pyrazol-3-yl}oxy)piperidin-1-yl]methyl}-3-{[(2S)-oxetan-2-yl]methyl}-3H-imidazo[4,5-b]pyridine-5-carboxylic acid] | 0.85 |  |
| O=C(O)c1ccc2nc(CN3CCC(Oc4cnn(Cc5ccc(Cl)cc5F)c4)CC3)n(C[C@@H]3CCO3)c2n1 [Compound 184a, 2-{[4-({1-[(4-chloro-2-fluorophenyl)methyl]-1H-pyrazol-4-yl}oxy)piperidin-1-yl]methyl}-3-{[(2S)-oxetan-2-yl]methyl}-3H-imidazo[4,5-b]pyridine-5-carboxylic acid] | 90 | 100 |
| O=C(O)c1ccc2nc(CN3CCC(n4ncc5ccc(Cc6ccc(Cl)cc6F)nc54)CC3)n(C[C@@H]3CCO3)c2n1 [Compound 185a, 2-[(4-{6-[(4-chloro-2-fluorophenyl)methyl]-1H-pyrazolo[3,4-b]pyridin-1-yl}piperidin-1-yl)methyl]-3-{[(2S)-oxetan-2-yl]methyl}-3H-imidazo[4,5-b]pyridine-5-carboxylic acid] | 0.47 |  |
| O=C(O)c1ccc2nc(Cc3ccc(Oc4ccnc(Cc5ccc(Cl)cc5)n4)cc3)n(C[C@@H]3CCO3)c2n1 [Compound 186a, 2-{[4-({2-[(4-chlorophenyl)methyl]pyrimidin-4-yl}oxy)phenyl]methyl}-3-{[(2S)-oxetan-2-yl]methyl}-3H-imidazo[4,5-b]pyridine-5-carboxylic acid] | 0.6 |  |
| O=C(O)c1ccc2nc(Cc3ccc(Oc4ccnc(Cc5ccc(Cl)cc5)n4)cc3)n(C[C@@H]3CCO3)c2c1 [Compound 187a, 2-{[4-({2-[(4-chlorophenyl)methyl]pyrimidin-4-yl}oxy)phenyl]methyl}-1-{[(2S)-oxetan-2-yl]methyl}-1H-1,3-benzodiazole-6-carboxylic acid] | 1.3 |  |
| O=C(O)c1ccc2nc(C[C@H]3CC[C@H](Oc4nc(Cc5ccc(Cl)cc5)ncc4F)CC3)n(C[C@@H]3CCO3)c2n1 [Compound 188a, 3-{[(2S)-oxetan-2-yl]methyl}-2-{[trans-4-({2-[(4-chlorophenyl)methyl]-5-fluoropyrimidin-4-yl}oxy)cyclohexyl]methyl}-3H-imidazo[4,5-b]pyridine-5-carboxylic acid] | 0.045 |  |
| O=C(O)c1ccc2nc(Cc3ccc(Oc4nc(Cc5ccc(Cl)cc5)ncc4F)cc3)n(C[C@@H]3CCO3)c2n1 [Compound 189a, 2-{[4-({2-[(4-chlorophenyl)methyl]-5-fluoropyrimidin-4-yl}oxy)phenyl]methyl}-3-{[(2S)-oxetan-2-yl]methyl}-3H-imidazo[4,5-b]pyridine-5-carboxylic acid] | 0.69 |  |
| O=C(O)c1ccc2nc(Cc3ccc(Oc4nc(Cc5ccc(Cl)cc5)ncc4F)cc3F)n(C[C@@H]3CCO3)c2n1 [Compound 190a, 2-{[4-({2-[(4-chlorophenyl)methyl]-5-fluoropyrimidin-4-yl}oxy)-2-fluorophenyl]methyl}-3-{[(2S)-oxetan-2-yl]methyl}-3H-imidazo[4,5-b]pyridine-5-carboxylic acid] | 0.41 |  |
| O=C(O)c1ccc2nc(Cc3ccc(Oc4nc(Cc5ccc(Cl)cc5)ncc4F)cc3F)n(C[C@@H]3CCO3)c2c1 [Compound 191a, 2-{[4-({2-[(4-chlorophenyl)methyl]-5-fluoropyrimidin-4-yl}oxy)-2-fluorophenyl]methyl}-1-{[(2S)-oxetan-2-yl]methyl}-1H-1,3-benzodiazole-6-carboxylic acid] | 0.29 |  |
| O=C(O)c1ccc2nc(CN3CC=C(c4cnc5ccc(Cc6ccc(Cl)cc6F)nn45)CC3)n(C[C@@H]3CCO3)c2n1 [Compound 192a, 2-[(4-{6-[(4-chloro-2-fluorophenyl)methyl]imidazo[1,2-b]pyridazin-3-yl}-1,2,3,6-tetrahydropyridin-1-yl)methyl]-3-{[(2S)-oxetan-2-yl]methyl}-3H-imidazo[4,5-b]pyridine-5-carboxylic acid] | 130 |  |
| O=C(O)c1ccc2nc(CN3CCC(Oc4ccnc(Cc5ccc(Cl)cc5)n4)CC3)n(Cc3cn[nH]c3)c2n1 [Compound 193, 3-((1H-pyrazol-4-yl)methyl)-2-((4-((2-(4-chlorobenzyl)pyrimidin-4-yl)oxy)piperidin-1-yl)methyl)-3H-imidazo[4,5-b]pyridine-5-carboxylic acid] | 0.19 |  |
| CCOCCn1c(CN2CCC(Oc3ccnc(Cc4ccc(Cl)cc4)n3)CC2)nc2ccc(C(=O)O)nc21 [Compound 194, 2-((4-((2-(4-chlorobenzyl)pyrimidin-4-yl)oxy)piperidin-1-yl)methyl)-3-(2-ethoxyethyl)-3H-imidazo[4,5-b]pyridine-5-carboxylic acid] | 2.9 |  |
| COC(C)Cn1c(CN2CCC(Oc3ccnc(Cc4ccc(Cl)cc4)n3)CC2)nc2ccc(C(=O)O)nc21 (stereo not shown) [Compound 195, 2-((4-((2-(4-chlorobenzyl)pyrimidin-4-yl)oxy)piperidin-1-yl)methyl)-3-(2-methoxypropyl)-3H-imidazo[4,5-b]pyridine-5-carboxylic acid] | 0.6 |  |
| O=C(O)c1ccc2nc(CN3CCC(Oc4ccnc(Cc5ccc(Cl)cc5)n4)CC3)n(C[C@H]3CCOC3)c2n1 [Compound 196a, (R)-2-((4-((2-(4-chlorobenzyl)pyrimidin-4-yl)oxy)piperidin-1-yl)methyl)-3-((tetrahydrofuran-3-yl)methyl)-3H-imidazo[4,5-b]pyridine-5-carboxylic acid] | 1.3 |  |
| O=C(O)c1ccc2nc(CN3CCC(Oc4nc(Cc5ccc(Cl)cc5)ncc4F)CC3)n(C[C@H]3CCOC3)c2n1 [Compound 197a, (R)-2-((4-((2-(4-chlorobenzyl)-5-fluoropyrimidin-4-yl)oxy)piperidin-1-yl)methyl)-3-((tetrahydrofuran-3-yl)methyl)-3H-imidazo[4,5-b]pyridine-5-carboxylic acid] | 2.5 |  |
| O=c1[nH]c(-c2ccc3nc(CN4CCC(Oc5ccnc(Cc6ccc(Cl)cc6)n5)CC4)n(C[C@@H]4CCO4)c3n2)no1 [Compound 198a, (S)-3-(2-((4-((2-(4-chlorobenzyl)pyrimidin-4-yl)oxy)piperidin-1-yl)methyl)-3-(oxetan-2-ylmethyl)-3H-imidazo[4,5-b]pyridin-5-yl)-1,2,4-oxadiazol-5(4H)-one] | 0.7 |  |

Reference: US20230071840A1, “HETEROCYCLIC GLP-1 AGONISTS” (Gasherbrum Bio, Inc., priority 2020, published 2023)
